According to patent US20150216779A1, “COMPOSITIONS FOR TARGETED ANTI-AGING THERAPY” (THE TEXAS A&M UNIVERSITY SYSTEM, priority 2012, published 2015):
Values belong to the molecule of their own block, whether it stands above or below them.

Tests used:
[1] = CoQ10 storage stability in delivery system at 30° C., HPLC; type: physicochemical; settings: 8 weeks at 30° C.; dispersed in matrix of heat-stabilized lactoferrin alone and in combination with branched-chain amino acids
Description: A delivery system containing the anti-aging agent CoQ10 is prepared as follows: A. Encapsulated-1 (CoQ10). Primary Emulsion. […] This mixture was coarsely homogenized for 3 min using a hand blender. Secondary Emulsion.
The primary and secondary emulsions were blended at 1:1 ratio. The final emulsion system contained 0.5% Menhaden oil/Smart Blend Omega oil, 0.1% heat-stabilized lactoferrin, 0.1% CoQ10 and 0.1% high-methoxyl pectin (w/w). The zinc ion concentration after dilution became 2.4 mg/100 ml. This delivery system for CoQ10 was homogenized (72° C., 22.5 MPa), followed by pasteurization (72° C., 120 s). B. Encapsulated-2 (CoQ10). Primary Emulsion. […] This mixture was coarsely homogenized for 3 min using a hand blender. Secondary Emulsion. […] The primary and secondary emulsions were blended at 1:1 ratio. The final emulsion system contained 0.5% Menhaden oil/Smart Blend Omega oil, 0.1% heat-stabilized lactoferrin, 0.2% branched-chain amino acids, 0.1% CoQ10, and 0.1% high-methoxyl pectin (w/w). The zinc ion concentration after dilution became 2.4 mg/100 ml. This delivery system for CoQ10 was homogenized (72° C., 22.5 MPa), followed by pasteurization (72° C., 120 s). C. Unencapsulated (CoQ10). […] This mixture was homogenized (72° C., 22.5 MPa), followed by pasteurization (72° C., 120 s). […]

[2] = Lutein photo-stability in delivery system at 21° C. under light 12 h daily, HPLC-PDA-MS/MS; type: physicochemical; settings: UV and visible light 12 h daily at 21° C. over 8 weeks; dispersed in heat-stabilized lactoferrin matrix
Description: A. Encapsulated-1 (Lutein). Primary Emulsion. […] This mixture was coarsely homogenized for 3 min using a hand blender. Secondary Emulsion.
(§1) The primary and secondary emulsions were blended at 1:1 ratio. The final emulsion system contained 0.5% Menhaden oil/Smart Blend Omega oil, 0.1% heat-stabilized lactoferrin, 0.1% lutein, and 0.1% high-methoxyl pectin (w/w). The zinc ion concentration after dilution became 2.4 mg/100 ml. This delivery system for lutein was homogenized (72° C., 22.5 MPa), followed by pasteurization (72° C., 120 s).
B. Encapsulated-2 (Lutein). Primary Emulsion. […] This mixture was coarsely homogenized for 3 min using a hand blender. Secondary Emulsion.
as §1, with “lactoferrin, 0.2% branched-chain amino acids,” for “lactoferrin,”
C. Unencapsulated (Lutein). […] This mixture was homogenized (72° C., 22.5 MPa), followed by pasteurization (72° C., 120 s).
The samples (500 ml each) were aseptically dispensed into clean, clear 600-ml bottles made from polyethylene terephthalate (PET). […]

[3] = O/W emulsion, menhaden oil/Smart Blend Omega oil 1:1 (0.5% w/w), entrapped within β-lactoglobulin microcarriers; 28 days of storage at 30° C.

- degradation of CoQ10 during storage [1]: about 30%
Molecule: COC1=C(OC)C(=O)C(C/C=C(\C)CC/C=C(\C)CC/C=C(\C)CC/C=C(\C)CC/C=C(\C)CC/C=C(\C)CC/C=C(\C)CC/C=C(\C)CC/C=C(\C)CCC=C(C)C)=C(C)C1=O [CoQ10, coenzyme Q10]

- light-sensitive degradation of xanthophyll carotenoid pigments (lutein) [2]: about 70%
Molecule: CC1=C[C@H](O)CC(C)(C)[C@H]1/C=C/C(C)=C/C=C/C(C)=C/C=C/C=C(C)/C=C/C=C(C)/C=C/C1=C(C)C[C@@H](O)CC1(C)C [lutein]

- percentage of retained ω-3 fatty acid [3]: 79.5%
Molecule: docohexaenoic acid [DHA]
